Reference: article PMC12637020, “Synthesis and biological evaluation of novel hydrazone derivatives for the treatment of Alzheimer's disease” (RSC Advances, 2025)

Key:
[1] = target: BChE enzyme (Homo sapiens, UniProt P06276); experiment: biochemical; details: for inhibition at 1000 µM: read-out: BChE% inhibition 10^−3 M; for inhibition at 100 µM: read-out: BChE% inhibition 10^−4 M
Text: (§1) The assay was completed in two steps.
(§2) The potential inhibitory effects of the obtained molecules on the AChE and BChE enzymes was examined using a variation of the Ellman method.[31,33,41–43] Distilled water from the Millipore/Milli-Q purification apparatus was utilized at every stage of the biological activity investigations during the evaluation process. In less than a week, all the solutions required for the biological investigation were meticulously prepared from scratch. A “BioTek-Precision Power (United States)” robotic pipetting system was utilized to distribute the prepared solutions and apply the test compounds and enzyme–substrate solutions to 96-well plates. The “BioTek-Synergy H1 Microplate Reader (United States)” was employed to establish and follow the enzyme protocol for spectrophotometric measurements. Solutions of the compounds were prepared at two different concentrations, 10^−3 M and 10^−4 M, using dimethylsulfoxide (DMSO) as 2% solution, and these were used in biological activity studies.

[2] = target: AChE enzyme (Homo sapiens, UniProt P22303); experiment: biochemical; assay type: biochemical; details: for inhibitory activity: at concentrations of 1000 and 100 µM; for inhibition at 1000 µM: read-out: AChE% inhibition 10^−3 M; for inhibition at 100 µM: read-out: AChE% inhibition 10^−4 M; for IC50: tested at 10 to 0.001 µM
Sequence of AChE enzyme (P22303 32-614): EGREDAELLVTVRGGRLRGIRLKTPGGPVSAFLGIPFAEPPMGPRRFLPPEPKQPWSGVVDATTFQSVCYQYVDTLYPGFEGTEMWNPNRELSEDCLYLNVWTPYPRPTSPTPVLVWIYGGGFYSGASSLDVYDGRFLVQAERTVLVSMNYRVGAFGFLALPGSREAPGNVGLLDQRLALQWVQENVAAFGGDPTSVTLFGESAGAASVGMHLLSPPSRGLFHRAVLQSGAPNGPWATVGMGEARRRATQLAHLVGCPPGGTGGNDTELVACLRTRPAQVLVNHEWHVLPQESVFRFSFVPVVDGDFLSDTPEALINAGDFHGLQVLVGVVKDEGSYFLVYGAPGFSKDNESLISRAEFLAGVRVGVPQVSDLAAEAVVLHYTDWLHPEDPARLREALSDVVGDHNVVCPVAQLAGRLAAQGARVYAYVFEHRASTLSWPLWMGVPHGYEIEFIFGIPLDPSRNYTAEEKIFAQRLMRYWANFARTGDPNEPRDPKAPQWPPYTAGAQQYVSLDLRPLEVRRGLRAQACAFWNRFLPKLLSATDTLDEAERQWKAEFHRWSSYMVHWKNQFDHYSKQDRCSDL
Text: as §1, §2

[3] = test system: NIH/3T3 mouse embryonic fibroblast cell line; experiment: MTT cytotoxicity test in NIH/3T3 cell line; assay type: cell-based; details: for Selectivity index: IC50 (NIH3T3)/IC50 (AChE); for IC50: Mus musculus, MTT, NIH3T3 fibroblast cells
Procedure: The IC50 values of the compounds were determined by nonlinear regression analysis, allowing the cytotoxic properties of the compounds to be interpreted. The molecules D1f and D1c were active against AChE enzymes.
For cytotoxicity tests, the NIH/3T3 mouse embryonic fibroblast cell line (ATCC® CRL-1658TM, London, UK) was employed. The supplier's recommendation served as the basis for the NIH/3T3 cells' incubation time. In each well of the 96-well plates, […] NIH/3T3 cells were planted. The MTT assay was performed in compliance with the previously mentioned standards.[29,35]

Sequence of BChE enzyme (P06276 29-602, species assumed): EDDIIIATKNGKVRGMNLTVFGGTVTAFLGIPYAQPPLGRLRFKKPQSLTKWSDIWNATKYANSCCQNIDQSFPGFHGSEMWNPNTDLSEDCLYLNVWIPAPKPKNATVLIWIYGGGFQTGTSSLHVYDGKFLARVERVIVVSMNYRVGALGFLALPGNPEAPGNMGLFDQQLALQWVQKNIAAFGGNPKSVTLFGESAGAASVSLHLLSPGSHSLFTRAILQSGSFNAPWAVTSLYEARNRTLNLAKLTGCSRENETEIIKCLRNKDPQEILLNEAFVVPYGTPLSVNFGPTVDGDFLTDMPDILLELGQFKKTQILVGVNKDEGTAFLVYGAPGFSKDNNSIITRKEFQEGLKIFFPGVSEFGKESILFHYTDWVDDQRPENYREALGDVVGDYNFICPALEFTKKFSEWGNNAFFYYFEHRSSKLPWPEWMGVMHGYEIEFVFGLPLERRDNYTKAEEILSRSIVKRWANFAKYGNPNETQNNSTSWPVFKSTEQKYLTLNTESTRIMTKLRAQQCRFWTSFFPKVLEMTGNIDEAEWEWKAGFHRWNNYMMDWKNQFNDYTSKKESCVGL

CC(=NN=c1scc(-c2ccc([N+](=O)[O-])cc2)n1C)c1ccc(N2CCCCC2)cc1 [D1c, 3-Methyl-4-(4-nitrophenyl)-2-((1-(4-(piperidin-1-yl)phenyl)ethylidene)hydrazineylidene)-2,3-dihydrothiazole]
IC50 [1]: > 1000 µM | inhibition at 1000 µM [1]: 24.4 ± 0.941% | inhibition at 100 µM [1]: 21.6 ± 0.852% | inhibitory activity [2]: more than 50% | inhibition at 1000 µM [2]: 94.6 ± 2.35% | inhibition at 100 µM [2]: 90.3 ± 1.53% | IC50 [2]: 0.29 ± 0.01 µM | Selectivity index [3]: 8.310 | IC50 [3]: 2.41 ± 0.109 µM

CC(=NN=c1scc(-c2ccc(C#N)cc2)n1C)c1ccc(N2CCCCC2)cc1 [D1f, 4-(-3-Methyl-2-((1-(4-(piperidin-1-yl)phenyl)ethylidene)hydrazineylidene)-2,3-dihydrothiazol-4-yl)benzonitrile]
IC50 [1]: > 1000 µM | inhibition at 1000 µM [1]: 29 ± 1.24% | inhibition at 100 µM [1]: 17 ± 0.784% | inhibitory activity [2]: more than 50% | inhibition at 1000 µM [2]: 96.8 ± 2.09% | inhibition at 100 µM [2]: 91.2 ± 2.43% | IC50 [2]: 0.039 ± 0.001 µM | Selectivity index [3]: 85.231 | IC50 [3]: 3.32 ± 0.155 µM

CCn1c(-c2ccc(F)cc2)csc1=NN=C(C)c1ccc(N2CCCCC2)cc1 [D3b, 3-Ethyl-4-(4-fluorophenyl)-2-((1-(4-(piperidin-1-yl)phenyl)ethylidene)hydrazineylidene)-2,3-dihydrothiazole]
IC50 [1]: > 1000 µM | inhibition at 1000 µM [1]: 32.6 ± 1.46% | inhibition at 100 µM [1]: 22.6 ± 0.964% | inhibition at 1000 µM [2]: 40.2 ± 1.85% | inhibition at 100 µM [2]: 35.8 ± 1.25% | IC50 [2]: > 1000 µM

CCn1c(-c2ccc([N+](=O)[O-])cc2)csc1=NN=C(C)c1ccc(N2CCCCC2)cc1 [D3c, 3-Ethyl-4-(4-nitrophenyl)-2-((1-(4-(piperidin-1 yl)phenyl)ethylidene)hydrazineylidene)-2,3-dihydrothiazole]
IC50 [1]: > 1000 µM | inhibition at 1000 µM [1]: 33.9 ± 1.54% | inhibition at 100 µM [1]: 27.3 ± 1.16% | inhibition at 1000 µM [2]: 42.8 ± 2.04% | inhibition at 100 µM [2]: 38.2 ± 1.74% | IC50 [2]: > 1000 µM

CCn1c(-c2ccc(Cl)cc2)csc1=NN=C(C)c1ccc(N2CCCCC2)cc1 [D3d, 4-(4-Chlorophenyl)-3-ethyl-2-((1-(4-(piperidin-1-yl)phenyl)ethylidene)hydrazineylidene)-2,3-dihydrothiazole]
IC50 [1]: > 1000 µM | inhibition at 1000 µM [1]: 37.5 ± 1.46% | inhibition at 100 µM [1]: 21.3 ± 1.07% | inhibition at 1000 µM [2]: 32.3 ± 1.44% | inhibition at 100 µM [2]: 23.3 ± 1.05% | IC50 [2]: > 1000 µM

CCn1c(-c2ccc(OC)cc2)csc1=NN=C(C)c1ccc(N2CCCCC2)cc1 [D3e, 3-Ethyl-4-(4-methoxyphenyl)-2-((1-(4-(piperidin-1-yl)phenyl)ethylidene)hydrazineylidene)-2,3-dihydrothiazole]
IC50 [1]: > 1000 µM | inhibition at 1000 µM [1]: 36.3 ± 1.42% | inhibition at 100 µM [1]: 30.3 ± 0.956% | inhibition at 1000 µM [2]: 34.1 ± 1.57% | inhibition at 100 µM [2]: 21.6 ± 0.926% | IC50 [2]: > 1000 µM

CCn1c(-c2ccc(C#N)cc2)csc1=NN=C(C)c1ccc(N2CCCCC2)cc1 [D3f, 4-(-3-Ethyl-2-((-1-(4-(piperidin-1-yl)phenyl)ethylidene)hydrazineylidene)-2,3-dihydrothiazol-4-yl)benzonitrile]
IC50 [1]: > 1000 µM | inhibition at 1000 µM [1]: 30.2 ± 1.05% | inhibition at 100 µM [1]: 21.1 ± 0.947% | inhibition at 1000 µM [2]: 57.4 ± 1.72% | inhibition at 100 µM [2]: 25.4 ± 0.856% | IC50 [2]: > 100 µM

CCn1c(-c2ccc(Cl)cc2Cl)csc1=NN=C(C)c1ccc(N2CCCCC2)cc1 [D3g, 4-(2,4-Dichlorophenyl)-3-ethyl-2-((1-(4-(piperidin-1 yl)phenyl)ethylidene)hydrazineylidene)-2,3-dihydrothiazole]
IC50 [1]: > 1000 µM | inhibition at 1000 µM [1]: 33.5 ± 1.26% | inhibition at 100 µM [1]: 26.8 ± 1.06% | inhibition at 1000 µM [2]: 26.7 ± 1.15% | inhibition at 100 µM [2]: 20.9 ± 0.884% | IC50 [2]: > 1000 µM

CCn1c(-c2ccc(Cl)c(Cl)c2)csc1=NN=C(C)c1ccc(N2CCCCC2)cc1 [D3h, 4-(3,4-Dichlorophenyl)-3-ethyl-2-((1-(4-(piperidin-1 yl)phenyl)ethylidene)hydrazineylidene)-2,3-dihydrothiazole]
IC50 [1]: > 1000 µM | inhibition at 1000 µM [1]: 38.7 ± 1.32% | inhibition at 100 µM [1]: 32.5 ± 1.13% | inhibition at 1000 µM [2]: 28.4 ± 1.25% | inhibition at 100 µM [2]: 23.7 ± 0.969% | IC50 [2]: > 1000 µM

CCn1c(-c2ccc(C)cc2C)csc1=NN=C(C)c1ccc(N2CCCCC2)cc1 [D3i, 4-(2,4-Dimethylphenyl)-3-ethyl-2-((1-(4-(piperidin-1-yl)phenyl)ethylidene)hydrazineylidene)-2,3-dihydrothiazole]
IC50 [1]: > 1000 µM | inhibition at 1000 µM [1]: 31.5 ± 1.04% | inhibition at 100 µM [1]: 24.1 ± 0.858% | inhibition at 1000 µM [2]: 40.9 ± 1.59% | inhibition at 100 µM [2]: 22.1 ± 0.962% | IC50 [2]: > 1000 µM
